# Data reported in US7482344B2, “Tricyclic steroid hormone nuclear receptor modulators” (Eli Lilly and Company, priority 2003, dated 2009).
# Molecular target: T1, MR (Homo sapiens, UniProt P08235)
# T1 sequence (P08235 1-984): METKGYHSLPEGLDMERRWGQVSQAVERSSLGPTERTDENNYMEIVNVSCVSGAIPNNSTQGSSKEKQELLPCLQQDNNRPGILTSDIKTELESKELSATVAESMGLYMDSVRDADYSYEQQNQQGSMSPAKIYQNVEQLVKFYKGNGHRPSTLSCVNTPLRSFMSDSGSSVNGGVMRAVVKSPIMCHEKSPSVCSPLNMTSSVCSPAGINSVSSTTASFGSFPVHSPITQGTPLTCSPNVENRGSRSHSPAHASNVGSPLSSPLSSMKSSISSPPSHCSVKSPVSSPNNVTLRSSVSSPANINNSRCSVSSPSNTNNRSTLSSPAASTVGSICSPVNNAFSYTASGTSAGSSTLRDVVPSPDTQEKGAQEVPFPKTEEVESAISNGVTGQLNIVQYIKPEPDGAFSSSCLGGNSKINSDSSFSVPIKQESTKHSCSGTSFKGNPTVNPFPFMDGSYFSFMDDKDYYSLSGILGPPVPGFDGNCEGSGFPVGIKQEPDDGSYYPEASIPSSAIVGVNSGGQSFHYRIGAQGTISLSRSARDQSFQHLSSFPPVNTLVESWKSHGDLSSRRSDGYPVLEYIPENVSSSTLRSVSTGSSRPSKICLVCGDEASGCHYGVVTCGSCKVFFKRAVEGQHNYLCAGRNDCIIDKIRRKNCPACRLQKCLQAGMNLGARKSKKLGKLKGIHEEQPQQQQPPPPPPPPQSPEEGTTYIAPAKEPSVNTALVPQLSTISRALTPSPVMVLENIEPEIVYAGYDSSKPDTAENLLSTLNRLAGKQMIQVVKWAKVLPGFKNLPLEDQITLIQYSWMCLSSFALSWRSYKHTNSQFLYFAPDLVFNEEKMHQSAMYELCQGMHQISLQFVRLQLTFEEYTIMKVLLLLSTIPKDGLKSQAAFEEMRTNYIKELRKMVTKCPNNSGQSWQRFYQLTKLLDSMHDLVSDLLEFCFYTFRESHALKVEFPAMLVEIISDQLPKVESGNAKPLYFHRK
# Test: Mineralocorticoid Receptor Binding Assay (Method 1), [3H]-aldosterone competition
# Parameters: The full length human MR gene is cloned from a human kidney or human brain cDNA library; made in house; host or cells: SF9 insect cells (pAcHLT baculovirus transfer vector)
# Conditions: human MR expressed in Sf9 cells, 0.5 nM [3H]-aldosterone
# Protocol: Mineralocorticoid Receptor Binding Assay (Method 1):
# The full length human MR gene is cloned from a human kidney or human brain cDNA library. Briefly, using synthetic oligonucleotide primers (Eli Lilly and Company, Indianapolis) directed to nucleotides 20-54 and 3700-3666 of the human MR, polymerase chain reaction (PCR) is performed under standard conditions using a human cDNA library. The PCR reaction is performed in a final volume of 50 μl containing about 1μl of a 50× stock solution of polymerase; about 1 μl of a 50× stock solution of dNTP; about 5μl of an appropriate PCR buffer; about 1 μl of each primer; about 5 μl of a H. kidney or H. brain cDNA library; and about 36 μl of water. The reaction is allowed to denature for about 30 seconds at 95 degrees Celsius, anneal for about 30 seconds at 55 degrees Celsius, and extend for about 5 minutes at 72 degrees Celsius, the sequence being repeated for a total of about 35 cycles. The desired PCR product (3.68 Kb) is confirmed by gel electrophoresis and subsequently cut from the gel and stored at about −20 degrees Celsius until extraction. To extract the cDNA product from the agarose gel, the QIAEX II Gel Extraction protocol (QIAGEN, Inc.) is employed according to the manufacturer's instructions. Following extraction, the MR cDNA is cloned into an appropriate cloning vector (Zero Blunt TOPO PCR Cloning Kit (Invitrogen, Inc.) and a pAcHLT-baculovirus transfer vector (B.D./Pharminogen), then expressed in SF9 insect cells, essentially according to manufacturer's instructions. Sf9 cells are grown at a scale where gram quantity cell pellets are obtained for subsequent use in the MR binding assay. Harvested cell pellets are lysed by repeated freeze-thaw cycles (about 4) in a suitable lysis buffer then centrifuged at about 1×10^3G (with the supernatant being saved for future assays).
# MR binding assays are performed in a final total volume of about 250 μl containing about 20-25 μg of protein and 0.5 nM of [^3H]-aldosterone plus varying concentrations of test compound or vehicle. The assay binding buffer consists of 30 mM sodium molybdate, 30 mM of TRIS-HCl, 5 mM sodium phosphate, 5 mM sodium pyrophosphate, and about 10% glycerol, pH=7.5.
# Briefly, assays are prepared at RT in 96-well Falcon 3072 plates, each well containing 210 μof binding buffer, 10 μl of […], 10 μl of test compound/vehicle, and 20 μl of the resuspended receptor protein extract. Incubations are carried out at 4 degrees Celsius with shaking for about 16 hours. 200 μl aliquots of each incubation are filtered onto Millipore HA 0.45 micron 96-well filter plates, pre-moistened with cold 30 mM TRIS-HCl. The filter plates are suctioned dry with vacuum and immediately washed 3× with cold 30 mM TRIS-HCl. The plates are then punched out and the amount of receptor-ligand complex is determined by liquid scintillation counting using 4 ml of Ready Protein Plus™ liquid scintillation cocktail.
row,SMILES,Ki
1,"CC(=C1c2ccccc2Sc2ccccc21)c1cccc(NS(C)(=O)=O)c1 [Example 4, 9-[1-(3-methylsulfonoylaminophenyl)ethylene] thioxanthine]",< 500 nM
2,O=c1[nH]c2cc(C=C3c4ccccc4Sc4ccccc43)ccc2o1 [Example 11],< 500 nM
3,O=c1[nH]c2ccc(C=C3c4ccccc4Sc4ccccc43)cc2[nH]1 [Example 10],< 500 nM
4,CS(=O)(=O)Nc1cccc(C=C2c3ccccc3Sc3ccccc32)c1 [Example 8],< 500 nM
5,O=c1[nH]c2cc(C=C3c4ccccc4Sc4ccccc43)ccc2s1 [Example 12],< 500 nM
6,CC(=C1c2ccccc2Sc2ccccc21)c1cccc(N)c1 [Example 6],< 500 nM

# Second part, the compound after the results:
row,Ki,SMILES
1,< 500 nM,CN1CCN(CCn2c(=O)[nH]c3cc(C=C4c5ccccc5Sc5ccccc54)ccc32)CC1 [Example 14]
2,< 500 nM,"O=c1[nH]c2ccc(C=C3c4ccc(F)cc4Sc4cc(F)ccc43)cc2[nH]1 [Example 5, 5-(3,6-Difluoro-thioxanthen-9-ylidenemethyl)-1,3-dihydro-benzoimidazol-2-one]"
3,< 500 nM,Oc1ccccc1C=C1c2ccccc2Sc2ccccc21 [Example 15]
4,< 500 nM,Nc1cccc(C=C2c3ccccc3Sc3ccccc32)c1 [Example 9]
5,< 500 nM,O=c1[nH]c2cc(C=C3c4ccccc4Sc4ccccc43)ccc2n1CCN1CCOCC1 [Example 13]
